This passage reports IC50 results from patent US12240840B2, “Amide-substituted heterocyclic compounds for the treatment of conditions related to the modulation of IL-12, IL-23 and/or IFN-alpha” (BRISTOL-MYERS SQUIBB COMPANY, priority 2018, dated 2025).

This assay has as its system IFNα-induced pSTAT5 (pY694) in CD3 positive cells of human whole blood. The experiment in a line: IFNα-Induced STAT Phosphorylation in Human Whole Blood. The assay is classed as cell-based. Particulars: Homo sapiens, 1 h compound incubation, 1000 U/mL recombinant human IFNα A/D for 15 min, pSTAT5 in CD3 positive population, read-out: Human WB IFNα-Induced Stat Phosph. (IC50). Summed up:
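Read-out is median fluorescence intensity of pSTAT5 (pY694) in the CD3-positive gate, by flow cytometry after fix/lyse and permeabilization. Before that, whole human blood anticoagulated with EDTA or ACD-A received compound for an hour and 1000 U/mL IFNα A/D for 15 min.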

`[2H]C([2H])([2H])NC(=O)c1nnc(NC(=O)C2CC2)cc1Nc1cccc(-c2nc(CN(C)C(=O)COC)no2)c1OC` [Example 170]: the IC50 was 570 nM.
Next, `[2H]C([2H])([2H])NC(=O)c1nnc(NC(=O)C2CC2)cc1Nc1cccc(-c2nc(CNC(=O)CN3CCN(S(C)(=O)=O)CC3)no2)c1OC` [Example 163]: 1760 nM; `[2H]C([2H])([2H])NC(=O)c1cnc(NC(=O)C2CC2)cc1Nc1cccc(-c2noc(COCC)n2)c1OC` [Example 91]: 50 nM; `[2H]C([2H])([2H])NC(=O)c1nnc(NC(=O)C2CC2)cc1Nc1cccc(-c2cc(C(=O)N3CCN(CCO)CC3)n(C)n2)c1OC` [Example 476]: 60 nM.
Next, `[2H]C([2H])([2H])NC(=O)c1cnc(NC(=O)C2CC2)cc1Nc1cccc(-c2nc(C(C)N3CCN(C(C)=O)CC3)no2)c1OC` (centres unmarked) [Example 222]: 1480 nM; `[2H]C([2H])([2H])NC(=O)c1cnc(NC(=O)C2CC2)cc1Nc1cccc(-c2nc(CCOC(C)(C)C)no2)c1OC` [Example 227]: 620 nM.
Next, `[2H]C([2H])([2H])NC(=O)c1nnc(NC(=O)C2CC2)cc1Nc1cccc(-c2nc(CN3CCC(O)CC3)no2)c1OC` [Example 207]: 480 nM; `[2H]C([2H])([2H])NC(=O)c1nnc(NC(=O)C2CC2)cc1Nc1cccc(-c2ncc(C(=O)N3[C@@H]4CC[C@H]3CC(N(C)C)C4)s2)c1OC` (some centres unmarked) [Example 344]: 30 nM.
For `[2H]C([2H])([2H])NC(=O)c1nnc(NC(=O)C2CC2)cc1Nc1cccc(-c2ncc(CC(=O)N(C)C)s2)c1OC` [Example 256], the IC50 stood at 130 nM.
Next, `[2H]C([2H])([2H])NC(=O)c1nnc(NC(=O)C2CC2)cc1Nc1cccc(-c2cc(C(=O)N(C)CC)n(C)n2)c1OC` [Example 539]: 120 nM; `[2H]C([2H])([2H])NC(=O)c1nnc(NC(=O)C2CC2)cc1Nc1cccc(-c2ncc(C(=O)N3CCC(CCO)CC3)s2)c1OC` [Example 297]: 30 nM.
Next, `COc1c(Nc2cc(NC(=O)C3CC3)ncc2C#N)cccc1-c1nc(CN2CCN(S(C)(=O)=O)CC2)no1` [Example 578]: 4340 nM; `[2H]C([2H])([2H])NC(=O)c1nnc(NC(=O)C2CC2)cc1Nc1cccc(-c2nc(C)c(C(=O)NC3CCC(N(C)C)CC3)s2)c1OC` (centres unmarked) [Example 365]: 320 nM; `[2H]C([2H])([2H])NC(=O)c1nnc(NC(=O)C2CC2)cc1Nc1cccc(-c2nc(CNC(=O)CN)no2)c1OC` [Example 155]: 780 nM.
Under `[2H]C([2H])([2H])NC(=O)c1nnc(NC(=O)C2CC2)cc1Nc1cccc(-c2ncc(C(=O)N3CCNC(=O)C3C)s2)c1OC` (centres unmarked) [Example 336] stands 260 nM; under `[2H]C([2H])([2H])NC(=O)c1nnc(NC(=O)C2CC2)cc1Nc1cccc(-c2cc(C(=O)N3CCOCC3)n(C)n2)c1OC` [Example 459], 80 nM.
Turning to `[2H]C([2H])([2H])NC(=O)c1nnc(NC(=O)C2CC2)cc1Nc1cccc(-c2ccn(CCNC(=O)COC)n2)c1OC` [Example 469], the IC50 is 200 nM.
In the case of `[2H]C([2H])([2H])NC(=O)c1nnc(NC(=O)C2CC2)cc1Nc1cccc(-c2nc([C@H](C)N)no2)c1OC` [Example 181], the IC50 was 630 nM.
Next, `[2H]C([2H])([2H])NC(=O)c1nnc(NC(=O)C2CC2)cc1Nc1cc(F)cc(-c2cc(C(=O)N3CCC(c4ccccc4)CC3)n(C)n2)c1OC` [Example 511]: 320 nM; `[2H]C([2H])([2H])NC(=O)c1nnc(NC(=O)C2CC2)cc1Nc1cccc(-c2nc([C@H](NC(C)=O)[C@H](C)O)no2)c1OC` [Example 203]: 460 nM; `[2H]C([2H])([2H])NC(=O)c1nnc(NC(=O)C2CC2)cc1Nc1cccc(-c2nc(CC(=O)NCCO)no2)c1OC` [Example 177]: 1030 nM.
Under `[2H]C([2H])([2H])NC(=O)c1nnc(Nc2ccc(C)nn2)cc1Nc1cccc(-c2ncc(C(=O)N(C)C)s2)c1OC` [Example 384] stands 40 nM; under `[2H]C([2H])([2H])NC(=O)c1nnc(NC(=O)C2CC2)cc1Nc1cccc(-c2noc(CN3CCNCC3)n2)c1OC` [Example 35], 120 nM.
For `[2H]C([2H])([2H])NC(=O)c1nnc(NC(=O)C2CC2)cc1Nc1cccc(-c2nc(CN(CCOC)CCOC)no2)c1OC` [Example 175], the IC50 is 660 nM.
Under `[2H]C([2H])([2H])NC(=O)c1cnc(NC(=O)C2CC2)cc1Nc1cc(F)cc(-c2cc(C(=O)N(C)C)n(C)n2)c1OC` [Example 456] stands 60 nM; under `[2H]C([2H])([2H])NC(=O)c1nnc(NC(=O)C2CC2)cc1Nc1cccc(-c2nc(C3(NC(=O)COC)CC3)no2)c1OC` [Example 149], 1950 nM.
Under `[2H]C([2H])([2H])NC(=O)c1nnc(Nc2cc(C)n(C)n2)cc1Nc1cc(F)cc(-c2cc(C(=O)NS(C)(=O)=O)n(C)n2)c1OC` [Example 552] stands 3600 nM; under `[2H]C([2H])([2H])NC(=O)c1cnc(NC(=O)C2CC2)cc1Nc1cccc(-c2noc(CN(C)S(C)(=O)=O)n2)c1OC` [Example 94], 11 nM.
On to `[2H]C([2H])([2H])NC(=O)c1cnc(NC(=O)C2CC2)cc1Nc1cccc(-c2nc(C(C)(C)O)no2)c1OC` [Example 218], for which the IC50 worked out at 390 nM.
Turning to `[2H]C([2H])([2H])NC(=O)c1nnc(NC(=O)C2CC2)cc1Nc1cccc(-c2nc(CN(C)C(=O)OC(C)(C)C)no2)c1OC` [Example 167], the IC50 came out at 2420 nM.
Next, `[2H]C([2H])([2H])NC(=O)c1nnc(NC(=O)C2CC2)cc1Nc1cccc(-c2noc(C(C)C(=O)N3CCOCC3)n2)c1OC` (centres unmarked) [Example 29]: 130 nM; `[2H]C([2H])([2H])NC(=O)c1nnc(NC(=O)C2CC2)cc1Nc1cc(F)cc(-c2ncc(C(=O)N(C)C)s2)c1OC` [Example 277]: 240 nM.
On to `[2H]C([2H])([2H])NC(=O)c1cnc(NC(=O)C2CC2)cc1Nc1cccc(-c2noc(CN3CCN(C(=O)OC)CC3)n2)c1OC` [Example 92], for which the IC50 was 30 nM.
Next, `[2H]C([2H])([2H])NC(=O)c1nnc(NC(=O)C2CC2)cc1Nc1cccc(-c2ncc(C(=O)NCC(O)CN3CCCC3=O)s2)c1OC` (centres unmarked) [Example 332]: 40 nM; `[2H]C([2H])([2H])NC(=O)c1cnc(NC(=O)C2CC2)cc1Nc1cccc(-c2nc(CN3C[C@@H](C)O[C@@H](C)C3)no2)c1OC` [Example 210]: 220 nM; `COc1c(Nc2cc(NC(=O)C3CC3)nnc2C(N)=O)cccc1-c1ncc(C(=O)NC2CCCCC2)s1` [Example 396]: 120 nM.
On to `[2H]C([2H])([2H])NC(=O)c1nnc(NC(=O)C2CC2)cc1Nc1cccc(-c2cc(C(=O)N3CCN(C(C)C)CC3)n(C)n2)c1OC` [Example 531], for which the IC50 was determined as 60 nM.
Under `[2H]C([2H])([2H])NC(=O)c1nnc(NC(=O)C2CC2)cc1Nc1cccc(-c2nc(CN3CCN(C(=O)C4(C#N)CC4)CC3)no2)c1OC` [Example 133] stands 100 nM; under `[2H]C([2H])([2H])NC(=O)c1nnc(NC(=O)C2CC2)cc1Nc1cccc(-c2cnn(CCNC(=O)CO)n2)c1OC` [Example 447], 160 nM.
Next, `[2H]C([2H])([2H])NC(=O)c1cnc(Nc2ccc(OC)nn2)cc1Nc1cc(F)cc(-c2cnn(C)n2)c1OC` [Example 452]: 150 nM; `[2H]C([2H])([2H])NC(=O)c1nnc(NC(=O)C2CC2)cc1Nc1cccc(-c2ncc(C(=O)NCCC(=O)OC)s2)c1OC` [Example 290]: 100 nM.
Under `[2H]C([2H])([2H])NC(=O)c1nnc(NC(=O)C2CC2)cc1Nc1cccc(-c2noc(C(=O)N3CCOCC3)n2)c1OC` [Example 16] stands 560 nM; under `CCN(Cc1nc(-c2cccc(Nc3cc(NC(=O)C4CC4)nnc3C(N)=O)c2OC)no1)S(C)(=O)=O` [Example 59], 13 nM; under `[2H]C([2H])([2H])NC(=O)c1nnc(NC(=O)C2CC2)cc1Nc1cccc(-c2noc(CN3CCN(S(C)(=O)=O)CC3)n2)c1OC` [Example 15], 30 nM.
With `[2H]C([2H])([2H])NC(=O)c1nnc(NC(=O)C2CC2)cc1Nc1cccc(-c2nc(CN3CCN(C(=O)C4CC4)CC3)no2)c1OC` [Example 132], the IC50 was 300 nM.
Turning to `[2H]C([2H])([2H])NC(=O)c1nnc(NC(=O)C2CC2)cc1Nc1cccc(-c2cnn(CCNC(=O)CC3CCCO3)n2)c1OC` (centres unmarked) [Example 438], the IC50 is 2890 nM.
Under `[2H]C([2H])([2H])NC(=O)c1nnc(NC(=O)C2CC2)cc1Nc1cccc(-c2ncc(C(=O)NCC3CCN(C)C3)s2)c1OC` (centres unmarked) [Example 326] stands 30 nM; under `[2H]C([2H])([2H])NC(=O)c1nnc(NC(=O)C2CC2)cc1Nc1cccc(-c2noc(C3CCCO3)n2)c1OC` (centres unmarked) [Example 81], 180 nM.
Under `[2H]C([2H])([2H])NC(=O)c1nnc(NC(=O)C2CC2)cc1Nc1cccc(-c2noc(CN)n2)c1OC` [Example 6, 4-((3-(5-(aminomethyl)-1,2,4-oxadiazol-3-yl)-2-methoxyphenyl)amino)-6-(cyclopropanecarboxamido)-N-trideuteromethylpyridazine-3-carboxamide] stands 110 nM; under `[2H]C([2H])([2H])NC(=O)c1nnc(NC(=O)C2CC2)cc1Nc1cccc(-c2nc(C)c(C(=O)NCCCN(C)C)s2)c1OC` [Example 357], 880 nM; under `[2H]C([2H])([2H])NC(=O)c1nnc(NC(=O)C2CC2)cc1Nc1cccc(-c2noc(C(=O)N(C)C)n2)c1OC` [Example 17], 490 nM.
Under `[2H]C([2H])([2H])NC(=O)c1nnc(NC(=O)C2CC2)cc1Nc1cccc(-c2ncc(CC(=O)N3CCS(=O)(=O)CC3)s2)c1OC` [Example 250] stands 640 nM; under `[2H]C([2H])([2H])NC(=O)c1nnc(Nc2ccc(C)nn2)cc1Nc1cccc(-c2nc(CN3CCOCC3)no2)c1OC` [Example 237], 70 nM.
